Assay [1] relates to EDIM virus (murine rotavirus). The class given is in vivo, BALB/c mice. Particulars: for Reduction in shedding: BALB/c mice.
Assay [2] relates to rotavirus (EDIM viral lysate). It counts as in vivo, BALB/c mice. The conditions noted are these: mice immunized with MBP::VP6; intramuscularly with QS-21 versus intranasally with LT.

Data on eleven substances can be found in patent US7311918B2, “Rotavirus subunit vaccine” (Children's Hospital Medical Center, priority 1998, dated 2007).

Values joined by “and” are separate entries in the source; they are usually repeats but may differ in a detail not shown here. Equal values may be shown once. “Also recorded” adds a separate entry of the source. Read-outs that look alike come from different tables or passages of the source.

In the case of “2: one of 11 overlapping synthetic peptides (18 to 31 amino acids) of the CD region of VP6, Table 10 (PDAERFSFPRVINSADGA; Rotavirus VP6 fragment) [Peptide 2]”, the “Mean reduction in rotavirus shedding (protection)” value (shortened to “Mean reduction”) in assay [1] (mouse, in vivo) amounted to 70%.

In the case of “4: one of 11 overlapping synthetic peptides (18 to 31 amino acids) of the CD region of VP6, Table 10 (FNPVILRPNNVEVEFLLNGQVINTYQARF; Rotavirus VP6 fragment) [Peptide 4]”, the “Mean reduction” value in assay [1] (mouse, in vivo) was 77%.

Regarding “Peptide 3: one of 11 overlapping synthetic peptides (18 to 31 amino acids) of the CD region of VP6, Table 10 (FSFPRVINSADGATTWYFNPVILRPNNVEV; Rotavirus VP6 fragment)”, in assay [1] (mouse, in vivo), the “% Reduction in shedding” value was found to be 57%; the “Mean reduction” value is given as 57%; the “Shedding per mouse per day” value is reported as 96; the “Shedding, Day 7” value turned out to be 0.

In the case of “Peptide 5: one of 11 overlapping synthetic peptides (18 to 31 amino acids) of the CD region of VP6, Table 10 (NGQVINTYQARFGTIVARNFDTIRLSFQLM; Rotavirus VP6 fragment)”, in assay [1] (mouse, in vivo), the “% Reduction in shedding” value amounted to 0%, the “Mean reduction” value is “did not elicit protection” and the “Shedding per mouse per day” value is listed as 341.

Consider “Peptide 6: 25 mer synthetic peptide of the CD region of VP6 containing the 14-amino acid sequence RLSFQLMRPPNMTP, Table 10 (RNFDTIRLSFQLMRPPNMTPAVTAL; Rotavirus VP6 fragment)”, for which, in assay [1] (mouse, in vivo), the “% Reduction in shedding” value is recorded as 88%; the “Mean reduction” value turned out to be 88%; the “Shedding per mouse per day” value was 27; the “Shedding, Day 7” value is 0.

In the case of “Peptide 7: one of 11 overlapping synthetic peptides (18 to 31 amino acids) of the CD region of VP6, Table 10 (MTPAVTALFPNAQPFEHHATVGLTLRIDSA; Rotavirus VP6 fragment)”, in assay [1] (mouse, in vivo), the “% Reduction in shedding” value is 18%, the “Mean reduction” value is “did not elicit protection” and the “Shedding per mouse per day” value is listed as 185.

Turning to “Peptide 9: one of 11 overlapping synthetic peptides (18 to 31 amino acids) of the CD region of VP6, Table 10 (VLADASETMLANVTSVRQEYAI; Rotavirus VP6 fragment)”, in assay [1] (mouse, in vivo), the “% Reduction in shedding” value came to 0%, the “Mean reduction” value was “did not elicit protection” and the “Shedding per mouse per day” value is 275.

“Peptide 10: one of 11 overlapping synthetic peptides (18 to 31 amino acids) of the CD region of VP6, Table 10 (QEYAIPVGPVFPPGMNWTDLITNYSPSRED; Rotavirus VP6 fragment)”: in assay [1] (mouse, in vivo), the “% Reduction in shedding” value stood at 0%; the “Mean reduction” value is recorded as “did not elicit protection”; the “Shedding per mouse per day” value was found to be 1825; the “Shedding, Day 7” value is 0.

For the substance “Peptide 11: one of 11 overlapping synthetic peptides (18 to 31 amino acids) of the CD region of VP6, Table 10 (TDLITNYSPSREDNLQRVFTVASIRSMLVK; Rotavirus VP6 fragment)”, in assay [1] (mouse, in vivo), the “% Reduction in shedding” value came out at 64%; the “Mean reduction” value amounted to 64%; the “Shedding per mouse per day” value is given as 80; the “Shedding, Day 6” value is 30 and 29 and 41 and 36 and 23. Further, the “Shedding, Day 7” value in assay [1] (mouse, in vivo) stood at 0.

Consider QS-21 [reference compound], for which the values for the Reduction in shedding in assay [1] (MBP::VP6 given intranasally with the adjuvant named) and in assay [1] (MBP::VP6 given orally with the adjuvant named) were 43% and 59%, respectively. Further, in assay [2], the “Serum IgG response” value was “greater IgG response”.

As for RLSFQLMRPPNMTP [Peptide 6-14], the “Mean reduction” value in assay [1] (mouse, in vivo) is listed as “comparable protection to that of peptide 6; also recorded: nearly complete protection”.
